From PubChem BioAssay (NCI)
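1) Cells in 96-well plates. 2) Compound, 48 h, 5 concentrations. 3) Linear interpolation between surrounding doses. 4) Unreached endpoint = highest concentration. The concentration for 50% growth inhibition is given as GI50. TGI is the concentration that stops growth completely.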

Tests used:
Test in all cases: DTP human tumour cell line panel, 48 h
LOX IMVI melanoma = test system: LOX IMVI melanoma
U251 CNS = test system: U251 CNS
OVCAR-4 ovarian = test system: OVCAR-4 ovarian
786-0 renal = test system: 786-0 renal
SN12C renal = test system: SN12C renal
CAKI-1 renal = test system: CAKI-1 renal
OVCAR-8 ovarian = test system: OVCAR-8 ovarian
MALME-3M melanoma = test system: MALME-3M melanoma
RXF 393 renal = test system: RXF 393 renal
EKVX NSCLC = test system: EKVX NSCLC
NCI-H522 lung = test system: NCI-H522 lung
MCF7 breast = test system: MCF7 breast
SK-MEL-2 melanoma = test system: SK-MEL-2 melanoma
DU-145 prostate = test system: DU-145 prostate
A498 renal = test system: A498 renal
SK-OV-3 ovarian = test system: SK-OV-3 ovarian
HOP-62 NSCLC = test system: HOP-62 NSCLC
HCT-116 colon = test system: HCT-116 colon
HOP-92 NSCLC = test system: HOP-92 NSCLC
SW-620 colon = test system: SW-620 colon
T-47D breast = test system: T-47D breast
SNB-75 CNS = test system: SNB-75 CNS
SF-539 CNS = test system: SF-539 CNS
PC-3 prostate = test system: PC-3 prostate
HS 578T breast = test system: HS 578T breast
M14 melanoma = test system: M14 melanoma
MDA-MB-231 breast = test system: MDA-MB-231 breast
TK-10 renal = test system: TK-10 renal
A549 NSCLC = test system: A549 NSCLC
OVCAR-3 ovarian = test system: OVCAR-3 ovarian
NCI-H460 lung = test system: NCI-H460 lung
NCI/ADR-RES ovarian = test system: NCI/ADR-RES ovarian
SNB-19 CNS = test system: SNB-19 CNS
SK-MEL-5 melanoma = test system: SK-MEL-5 melanoma
SF-295 CNS = test system: SF-295 CNS
HL-60(TB) leukemia = test system: HL-60(TB) leukemia
HT29 colon = test system: HT29 colon
K-562 leukemia = test system: K-562 leukemia
MOLT-4 leukemia = test system: MOLT-4 leukemia
MDA-MB-435 = test system: MDA-MB-435
SK-MEL-28 melanoma = test system: SK-MEL-28 melanoma
IGROV1 ovarian = test system: IGROV1 ovarian
UACC-257 melanoma = test system: UACC-257 melanoma
COLO 205 colon = test system: COLO 205 colon
CCRF-CEM leukemia = test system: CCRF-CEM leukemia
ACHN renal = test system: ACHN renal
BT-549 breast = test system: BT-549 breast
UACC-62 melanoma = test system: UACC-62 melanoma
KM12 colon = test system: KM12 colon
UO-31 renal = test system: UO-31 renal
HCC-2998 colon = test system: HCC-2998 colon
NCI-H226 lung = test system: NCI-H226 lung
SF-268 CNS = test system: SF-268 CNS
SR leukemia = test system: SR leukemia
OVCAR-5 ovarian = test system: OVCAR-5 ovarian
MDA-MB-468 breast = test system: MDA-MB-468 breast
HCT-15 colon = test system: HCT-15 colon
RPMI-8226 leukemia = test system: RPMI-8226 leukemia
NCI-H23 lung = test system: NCI-H23 lung

Compound `CC1(C)CC[C@]2(C(=O)Nc3ccccc3)CC[C@]3(C)C(=CC[C@@H]4[C@@]5(C)CC[C@H](N)C(C)(C)[C@@H]5CC[C@]43C)[C@H]2C1` has a GI50 (LOX IMVI melanoma) of 4.31 µM, a TGI (LOX IMVI melanoma) of 16.2 µM and a GI50 (U251 CNS) of 17.5 µM. It also gave a TGI (U251 CNS) of 35.1 µM, a GI50 (OVCAR-4 ovarian) of 15.8 µM and a TGI (OVCAR-4 ovarian) of 31.4 µM. The GI50 (786-0 renal) was 13.8 µM, the TGI (786-0 renal) was 29 µM and the GI50 (SN12C renal) was 16.5 µM. The TGI (SN12C renal) was 30.6 µM, the GI50 (CAKI-1 renal) was 14.6 µM and the TGI (CAKI-1 renal) was 28.5 µM. It also gave a GI50 (OVCAR-8 ovarian) of 18.2 µM, a TGI (OVCAR-8 ovarian) of 38.3 µM and a GI50 (MALME-3M melanoma) of 16.4 µM. It also gave a TGI (MALME-3M melanoma) of 30.3 µM, a GI50 (RXF 393 renal) of 10.2 µM and a TGI (RXF 393 renal) of 24 µM. It also gave a GI50 (EKVX NSCLC) of 15.6 µM, a TGI (EKVX NSCLC) of 30.4 µM and a GI50 (NCI-H522 lung) of 16.2 µM. For the same compound, the TGI (NCI-H522 lung) was 32.4 µM, the GI50 (MCF7 breast) was 3.51 µM and the TGI (MCF7 breast) was 14.7 µM. The GI50 (SK-MEL-2 melanoma) was 17.1 µM, the TGI (SK-MEL-2 melanoma) was 32.3 µM and the GI50 (DU-145 prostate) was 16.1 µM. It also gave a TGI (DU-145 prostate) of 30.6 µM, a GI50 (A498 renal) of 13.2 µM and a TGI (A498 renal) of 27.1 µM. For the same compound, the GI50 (SK-OV-3 ovarian) was 17.2 µM, the TGI (SK-OV-3 ovarian) was 33.6 µM and the GI50 (HOP-62 NSCLC) was 15.8 µM. The TGI (HOP-62 NSCLC) was 32.4 µM, the GI50 (HCT-116 colon) was 9.26 µM and the TGI (HCT-116 colon) was 26.2 µM. For the same compound, the GI50 (HOP-92 NSCLC) was 11.5 µM, the TGI (HOP-92 NSCLC) was 26.1 µM and the GI50 (SW-620 colon) was 5.47 µM. The TGI (SW-620 colon) was 20.3 µM, the GI50 (T-47D breast) was 14.9 µM and the TGI (T-47D breast) was 34.7 µM. It also gave a GI50 (SNB-75 CNS) of 12.2 µM, a TGI (SNB-75 CNS) of 25.5 µM and a GI50 (SF-539 CNS) of 15.4 µM. It also gave a TGI (SF-539 CNS) of 29.1 µM, a GI50 (PC-3 prostate) of 15.9 µM and a TGI (PC-3 prostate) of 31.8 µM. It also gave a GI50 (HS 578T breast) of 16.2 µM, a TGI (HS 578T breast) of 35.2 µM and a GI50 (M14 melanoma) of 17.6 µM. It also gave a TGI (M14 melanoma) of 33.8 µM, a GI50 (MDA-MB-231 breast) of 16.1 µM and a TGI (MDA-MB-231 breast) of 30 µM. The GI50 (TK-10 renal) was 17.4 µM, the TGI (TK-10 renal) was 33.3 µM and the GI50 (A549 NSCLC) was 17.4 µM. It also gave a TGI (A549 NSCLC) of 41.6 µM, a GI50 (OVCAR-3 ovarian) of 13.2 µM and a TGI (OVCAR-3 ovarian) of 26.6 µM. It also gave a GI50 (NCI-H460 lung) of 13.4 µM, a TGI (NCI-H460 lung) of 28 µM and a GI50 (NCI/ADR-RES ovarian) of 16.2 µM. It also gave a TGI (NCI/ADR-RES ovarian) of 31.9 µM, a GI50 (SNB-19 CNS) of 16.4 µM and a TGI (SNB-19 CNS) of 30.6 µM. It also gave a GI50 (SK-MEL-5 melanoma) of 15.5 µM, a TGI (SK-MEL-5 melanoma) of 29 µM and a GI50 (SF-295 CNS) of 15.6 µM. It also gave a TGI (SF-295 CNS) of 30.4 µM, a GI50 (HL-60(TB) leukemia) of 10 µM and a TGI (HL-60(TB) leukemia) of 37.5 µM. The GI50 (HT29 colon) was 17.5 µM, the TGI (HT29 colon) was 39.9 µM and the GI50 (K-562 leukemia) was 4.07 µM. The TGI (K-562 leukemia) was over 100 µM, the GI50 (MOLT-4 leukemia) was 15.3 µM and the TGI (MOLT-4 leukemia) was 42 µM. The GI50 (MDA-MB-435) was 14.8 µM, the TGI (MDA-MB-435) was 29 µM and the GI50 (SK-MEL-28 melanoma) was 17.5 µM. The TGI (SK-MEL-28 melanoma) was 31.7 µM, the GI50 (IGROV1 ovarian) was 15.8 µM and the TGI (IGROV1 ovarian) was 30.2 µM. It also gave a GI50 (UACC-257 melanoma) of 15.8 µM, a TGI (UACC-257 melanoma) of 32.2 µM and a GI50 (COLO 205 colon) of 15.6 µM. For the same compound, the TGI (COLO 205 colon) was 35.7 µM, the GI50 (CCRF-CEM leukemia) was 14.6 µM and the TGI (CCRF-CEM leukemia) was 34.5 µM. The GI50 (ACHN renal) was 15.9 µM, the TGI (ACHN renal) was 29.5 µM and the GI50 (BT-549 breast) was 18.3 µM. For the same compound, the TGI (BT-549 breast) was 32.9 µM, the GI50 (UACC-62 melanoma) was 16.7 µM and the TGI (UACC-62 melanoma) was 30.6 µM. The GI50 (KM12 colon) was 17.3 µM, the TGI (KM12 colon) was 32.4 µM and the GI50 (UO-31 renal) was 13.9 µM. For the same compound, the TGI (UO-31 renal) was 27.1 µM, the GI50 (HCC-2998 colon) was 12 µM and the TGI (HCC-2998 colon) was 25.1 µM. It also gave a GI50 (NCI-H226 lung) of 14.9 µM, a TGI (NCI-H226 lung) of 31.8 µM and a GI50 (SF-268 CNS) of 16.6 µM. The TGI (SF-268 CNS) was 33.5 µM, the GI50 (SR leukemia) was 2.84 µM and the TGI (SR leukemia) was 13.3 µM. It also gave a GI50 (OVCAR-5 ovarian) of 16.2 µM, a TGI (OVCAR-5 ovarian) of 30 µM and a GI50 (MDA-MB-468 breast) of 13.3 µM. The TGI (MDA-MB-468 breast) was 28.1 µM, the GI50 (HCT-15 colon) was 13.6 µM and the TGI (HCT-15 colon) was 27.9 µM. For the same compound, the GI50 (RPMI-8226 leukemia) was 19 µM, the TGI (RPMI-8226 leukemia) was 80 µM and the GI50 (NCI-H23 lung) was 16.8 µM. The TGI (NCI-H23 lung) was 31.5 µM.
